Values quoted from earlier work in patent US20080261897A1, “Formulation Containing a Polyphenol-Containing Composition and Isomaltulose” (priority 2005, published 2008).

O=C(CO)[C@@H](O)[C@H](O)[C@H](O)CO[C@H]1O[C@H](CO)[C@@H](O)[C@H](O)[C@H]1O [isomaltulose, 6-O-α-D-glucopyranosylfructose]
solubility of isomaltulose in water: 0.49 g of anhydrous isomaltulose per g of water
